The nature of assay [1]: Antioxidant activity assessed as free radical scavenging activity at 100 uM incubated for 30 mins in dark by DPPH assay relative to control. The assay is classed as functional. On the technique in general: Loss of DPPH colour is used to gauge radical scavenging.
Assay [2] has as its system HaCaT. The experiment in a line: Anti-ferroptotic effect against erastin-induced cytotoxicity in human HaCaT cells assessed as cell viability at 10 uM preincubated for 4 hrs followed by erastin addition measured after 24 hrs by MTT assay relative to control. The assay is classed as functional. The conditions noted are these: for Activity: time 28.0 hrs; for viability at 10 µM: time 28 hrs, read-out: Activity. On the technique in general: Formazan colour is commonly taken as a measure of viable cells.

Assay [3] in a line: Iron-chelating activity of compound at 500 uM incubated for 10 mins by absorbance based assay relative to control. The assay is classed as functional.
Assay [4] concerns HaCaT. The experiment in a line: Anti-ferroptotic effect against erastin-induced cytotoxicity in human HaCaT cells assessed as cell viability at 10 uM preincubated for 4 hrs followed by erastin addition measured after 24 hrs by MTT assay (reference value: 23 %). The assay is classed as functional. The conditions noted are these: time 28 hrs, read-out: Activity.
Assay [5] is described as follows: Antioxidant activity assessed as free radical scavenging activity incubated for 30 mins in dark by DPPH assay. The assay is classed as functional.
The test system of assay [6] is HaCaT. The experiment in a line: Reversal of erastin-induced iron level in human HaCaT cells at 10 uM preincubated for 24 hrs followed by erastin addition measured after 24 hrs by FerroOrange probe based assay (reference value: 43 %). The assay is classed as functional. The conditions noted are these: time 48 hrs.
Assay [7] has as its system HaCaT. The experiment in a line: Suppression of erastin-induced intracellular Fe2+ level in human HaCaT cells at 10 uM preincubated for 24 hrs followed by erastin addition measured after 24 hrs by FerroOrange probe based assay (reference value: 25 %). The assay is classed as functional. The settings on record: time 48 hrs.
Assay [8] concerns HaCaT. Kind of assay: Reversal of erastin-induced ROS level in human HaCaT cells at 10 uM preincubated for 24.5 hrs followed by erastin addition measured after 4 hrs by DC-FDA probe based assay (reference value: 23 %). The assay is classed as functional. The settings on record: time 28.5 hrs.
Assay [9] has as its system HaCaT. The experiment in a line: Reversal of erastin-induced lipid peroxidation in human HaCaT cells at 10 uM preincubated for 4 hrs followed by erastin addition measured after 24 hrs by flow cytometry (reference value: 47 %). The assay is classed as functional. The conditions noted are these: time 28 hrs. (A flow cytometer gives signals particle by particle.)
For assay [10], the system named is HaCaT. Kind of assay: Anti-ferroptotic effect against erastin-induced cytotoxicity in human HaCaT cells assessed as cell viability at 2.5 uM preincubated for 4 hrs followed by erastin addition measured after 24 hrs by MTT assay (reference value: 23 %). The assay is classed as functional. The settings on record: time 28 hrs, read-out: Activity.
The test system of assay [11] is HaCaT. Kind of assay: Anti-ferroptotic effect against erastin-induced cytotoxicity in human HaCaT cells assessed as cell viability at 5 uM preincubated for 4 hrs followed by erastin addition measured after 24 hrs by MTT assay (reference value: 23 %). The assay is classed as functional. The settings on record: time 28 hrs, read-out: Activity.
In assay [12] the test system is HaCaT. Kind of assay: Reversal of erastin-induced lipid peroxidation in human HaCaT cells at 0.6 uM preincubated for 4 hrs followed by erastin addition measured after 24 hrs by flow cytometry (reference value: 47 %). The assay is classed as functional. The settings on record: time 28 hrs.
Assay [13] relates to HaCaT. The experiment in a line: Reversal of erastin-reduced CSNK2B level in human HaCaT cells. The assay is classed as functional, cell-based.
The subject of assay [14] is HaCaT. The experiment in a line: Reversal of erastin-induced lipid peroxidation in human HaCaT cells at 2.5 uM preincubated for 4 hrs followed by erastin addition measured after 24 hrs by flow cytometry (reference value: 47 %). The assay is classed as functional. The settings on record: time 28 hrs.
Assay [15] concerns HaCaT. The experiment in a line: Anti-ferroptotic effect against erastin-induced cytotoxicity in human HaCaT cells assessed as cell viability at 0.31 uM preincubated for 4 hrs followed by erastin addition measured after 24 hrs by MTT assay (reference value: 23 %). The assay is classed as functional. The conditions noted are these: time 28 hrs, read-out: Activity.
In assay [16] the test system is HaCaT. Kind of assay: Anti-ferroptotic effect against erastin-induced cytotoxicity in human HaCaT cells assessed as cell viability at 0.63 uM preincubated for 4 hrs followed by erastin addition measured after 24 hrs by MTT assay (reference value: 23 %). The assay is classed as functional. The settings on record: time 28 hrs, read-out: Activity.
Assay [17] relates to HaCaT. Kind of assay: Reversal of erastin-induced LIG3 level in human HaCaT cells. The assay is classed as functional, cell-based.
For assay [18], the system named is HaCaT. The experiment in a line: Anti-ferroptotic effect against erastin-induced cytotoxicity in human HaCaT cells assessed as cell viability at 0.08 uM preincubated for 4 hrs followed by erastin addition measured after 24 hrs by MTT assay (reference value: 23 %). The assay is classed as functional. The conditions noted are these: time 28 hrs, read-out: Activity.

In assay [19] the test system is HaCaT. Kind of assay: Reversal of erastin-induced ROS level in human HaCaT cells at 2.5 uM preincubated for 24.5 hrs followed by erastin addition measured after 4 hrs by DC-FDA probe based assay (reference value: 23 %). The assay is classed as functional. The conditions noted are these: time 28.5 hrs.
Assay [20] deals with HaCaT. Kind of assay: Reversal of erastin-induced FXR2 level in human HaCaT cells. The assay is classed as functional, cell-based.
Assay [21] deals with HaCaT. The experiment in a line: Anti-ferroptotic effect against erastin-induced cytotoxicity in human HaCaT cells assessed as cell viability at 0.16 uM preincubated for 4 hrs followed by erastin addition measured after 24 hrs by MTT assay (reference value: 23 %). The assay is classed as functional. The settings on record: time 28 hrs, read-out: Activity.
The subject of assay [22] is HaCaT. Kind of assay: Anti-ferroptotic effect against erastin-induced cytotoxicity in human HaCaT cells assessed as cell viability at 1.25 uM preincubated for 4 hrs followed by erastin addition measured after 24 hrs by MTT assay (reference value: 23 %). The settings on record: time 28 hrs, read-out: Activity. The assay is classed as functional.
Assay [23] concerns HaCaT. Kind of assay: Effect on GSH level in human HaCaT cells at 2.5 uM. The assay is classed as functional, cell-based.
Assay [24] concerns HaCaT. The experiment in a line: Reversal of erastin-induced iron level in human HaCaT cells at 2.5 uM preincubated for 24 hrs followed by erastin addition measured after 24 hrs by FerroOrange probe based assay (reference value: 43 %). The assay is classed as functional. The settings on record: time 48 hrs.
Assay [25] deals with HaCaT. Kind of assay: Reversal of erastin-reduced RPL7A level in human HaCaT cells. The assay is classed as functional, cell-based.
The subject of assay [26] is HaCaT. Kind of assay: Reversal of erastin-reduced LGALS3 level in human HaCaT cells. The assay is classed as functional, cell-based.
The test system of assay [27] is HaCaT. The experiment in a line: Reversal of erastin-induced ROS level in human HaCaT cells at 0.6 uM preincubated for 24.5 hrs followed by erastin addition measured after 4 hrs by DC-FDA probe based assay (reference value: 23 %). The assay is classed as functional. The settings on record: time 28.5 hrs.
For assay [28], the system named is HaCaT. Kind of assay: Suppression of erastin-induced intracellular Fe2+ level in human HaCaT cells at 0.6 uM preincubated for 24 hrs followed by erastin addition measured after 24 hrs by FerroOrange probe based assay (reference value: 25 %). The assay is classed as functional. The conditions noted are these: time 48 hrs.
Assay [29] relates to HaCaT. The experiment in a line: Suppression of erastin-induced intracellular Fe2+ level in human HaCaT cells at 2.5 uM preincubated for 24 hrs followed by erastin addition measured after 24 hrs by FerroOrange probe based assay (reference value: 25 %). The assay is classed as functional. The settings on record: time 48 hrs.
In assay [30] the test system is HaCaT. Kind of assay: Reversal of erastin-induced DDX60 level in human HaCaT cells. The assay is classed as functional, cell-based.

Structures are written as SMILES. Calls of active or inactive are those of the source. The calls are words filed in the database; no cut-off is given here.

For the compound `CC1=C(/C=C/C(C)=C/C=C/C(C)=C/CO)C(C)(C)CCC1`, the Activity in assay [1] is 18%; in assay [3] it was 87%. The result in the assay on HaCaT [2] was inactive.

Take `CCOC(=O)c1ccc(NC2CCCCC2)c(N)c1`: the viability at 10 µM in the assay on HaCaT [4] stood at 66%.

A word on the IC50: it is the midpoint of a concentration-inhibition curve. Turning to `O=C1O[C@H]([C@@H](O)CO)C(O)=C1O` [ASCORBIC ACID], the half-inhibitory concentration (IC50) in [5] amounted to 15.9 µM. In addition, the result in the assay with HaCaT [2] was inactive. In assay [3], this compound came in with an Activity of under 5%.

For the compound `O=c1c(O)c(-c2ccc(O)c(O)c2)oc2cc(O)ccc12` [FISETIN], the IC50 in assay [5] came out at 10.1 µM. The Activity is 14% in the assay with HaCaT [6]; 32% in the assay on HaCaT [7]; 11% in the assay on HaCaT [8]; 40% in the assay with HaCaT [9]; 60% in [3]. The viability at 10 µM in the assay on HaCaT [2] stood at 37%.

On to `C=C(C)[C@@H]1CCC(C)=C[C@H]1c1c(O)cc(CCCCC)cc1O` [CANNABIDIOL], for which the viability at 2.5 µM in the assay with HaCaT [10] turned out to be 74%. Also, in the assay on HaCaT [11], the viability at 5 µM stood at 71%. In addition, the results for the viability at 10 µM with HaCaT [4] and with HaCaT [2] were 68% and 76%, respectively. In addition, the Activity amounted to 39% in the assay on HaCaT [12]; 44% in the assay on HaCaT [14]; 14% in the assay with HaCaT [19]; 17% with HaCaT [6]; 15% with HaCaT [24]; 26% in the assay on HaCaT [8]. For the same compound, the Activity is 10% in the assay with HaCaT [27]; 10% in the assay with HaCaT [28]; 40% in the assay with HaCaT [9]; 12% with HaCaT [29]; under 5% in assay [3]. Besides, the result in the assay with HaCaT [13], with HaCaT [17], in the assay on HaCaT [20], with HaCaT [25], with HaCaT [26] and in the assay with HaCaT [30] was Active. Further, the IC50 in [5] worked out at 33.3 µM. The viability at 0.31 µM in the assay with HaCaT [15] was 45%. For the same compound, the viability at 0.63 µM in the assay on HaCaT [16] was determined as 52%. The viability at 0.08 µM in the assay on HaCaT [18] was determined as 29%. For the same compound, in the assay on HaCaT [21], the viability at 0.16 µM was determined as 36%. For the same compound, the viability at 1.25 µM in the assay with HaCaT [22] amounted to 67%. Moreover, the result in the assay with HaCaT [23] was inactive.

For the origin of these results see ChEMBL document CHEMBL5634163, “Anti-Ferroptotic Effect of Cannabidiol in Human Skin Keratinocytes Characterized by Data-Independent Acquisition-Based Proteomics” (J Nat Prod, 2024).
